SMILES strings stand for the structures.

In article PMC6386942, “Bisoprolol, Known to Be a Selective β1-Receptor Antagonist, Differentially but Directly Suppresses IK(M) and IK(erg) in Pituitary Cells and Hippocampal Neurons” (International Journal of Molecular Sciences, 2019) one finds IC50 data, which are given here for 1 molecule.

For data set [1], the target named is T1, M-type K+ (KM) channel, KCNQ2 (KV7.2)/KCNQ3 (KV7.3) (Rattus norvegicus, UniProt O88943+O88944).
T1 construct: native channel in pituitary GH3 cells; with KCNQ3 (KV7.3)
Nature of the data set: whole-cell patch clamp of native IK(M), plus cell-attached single KM channel recordings in GH3 cells. The format is cell-based. Background: The patch-clamp technique gives a direct electrical read-out from membranes.

Data set [2] deals with T2, erg-mediated K+ channel (Kerg, KV11) (Rattus norvegicus, UniProt O08962).
T2 construct: gene Kcnh2; native channel in pituitary GH3 cells
T2 sequence (O08962 1-1163): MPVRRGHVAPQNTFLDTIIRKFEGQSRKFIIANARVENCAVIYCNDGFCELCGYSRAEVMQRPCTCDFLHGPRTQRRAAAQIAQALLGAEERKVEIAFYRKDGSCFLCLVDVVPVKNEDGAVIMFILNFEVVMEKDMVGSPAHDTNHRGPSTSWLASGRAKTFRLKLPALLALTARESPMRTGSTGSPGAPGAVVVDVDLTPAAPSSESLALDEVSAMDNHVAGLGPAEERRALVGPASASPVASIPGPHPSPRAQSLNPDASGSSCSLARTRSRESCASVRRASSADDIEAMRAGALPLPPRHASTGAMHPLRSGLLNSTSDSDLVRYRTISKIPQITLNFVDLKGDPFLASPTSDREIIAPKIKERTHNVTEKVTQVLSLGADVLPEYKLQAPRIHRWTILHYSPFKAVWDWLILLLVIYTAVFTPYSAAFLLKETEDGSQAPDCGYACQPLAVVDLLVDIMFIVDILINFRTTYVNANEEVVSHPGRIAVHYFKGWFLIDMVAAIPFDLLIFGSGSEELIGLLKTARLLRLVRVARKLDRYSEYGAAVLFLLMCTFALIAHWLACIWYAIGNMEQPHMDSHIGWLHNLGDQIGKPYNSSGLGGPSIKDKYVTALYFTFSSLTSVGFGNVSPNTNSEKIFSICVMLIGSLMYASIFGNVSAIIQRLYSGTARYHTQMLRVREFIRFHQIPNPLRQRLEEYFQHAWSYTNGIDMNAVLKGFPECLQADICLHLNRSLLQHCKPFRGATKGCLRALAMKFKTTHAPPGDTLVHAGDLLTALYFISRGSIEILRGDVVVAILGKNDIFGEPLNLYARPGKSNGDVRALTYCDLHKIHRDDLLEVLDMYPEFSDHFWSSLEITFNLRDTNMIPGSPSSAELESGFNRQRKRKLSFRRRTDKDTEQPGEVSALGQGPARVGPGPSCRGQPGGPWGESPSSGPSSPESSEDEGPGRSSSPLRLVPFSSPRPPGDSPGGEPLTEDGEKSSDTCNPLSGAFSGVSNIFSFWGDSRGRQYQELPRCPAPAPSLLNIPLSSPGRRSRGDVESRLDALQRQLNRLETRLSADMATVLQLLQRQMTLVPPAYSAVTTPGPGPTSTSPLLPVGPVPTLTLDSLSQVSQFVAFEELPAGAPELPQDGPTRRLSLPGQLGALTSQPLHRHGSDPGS
Nature of the data set: whole-cell patch clamp of native IK(erg) in GH3 cells. It counts as cell-based.

T1 sequence (O88943 whole entry): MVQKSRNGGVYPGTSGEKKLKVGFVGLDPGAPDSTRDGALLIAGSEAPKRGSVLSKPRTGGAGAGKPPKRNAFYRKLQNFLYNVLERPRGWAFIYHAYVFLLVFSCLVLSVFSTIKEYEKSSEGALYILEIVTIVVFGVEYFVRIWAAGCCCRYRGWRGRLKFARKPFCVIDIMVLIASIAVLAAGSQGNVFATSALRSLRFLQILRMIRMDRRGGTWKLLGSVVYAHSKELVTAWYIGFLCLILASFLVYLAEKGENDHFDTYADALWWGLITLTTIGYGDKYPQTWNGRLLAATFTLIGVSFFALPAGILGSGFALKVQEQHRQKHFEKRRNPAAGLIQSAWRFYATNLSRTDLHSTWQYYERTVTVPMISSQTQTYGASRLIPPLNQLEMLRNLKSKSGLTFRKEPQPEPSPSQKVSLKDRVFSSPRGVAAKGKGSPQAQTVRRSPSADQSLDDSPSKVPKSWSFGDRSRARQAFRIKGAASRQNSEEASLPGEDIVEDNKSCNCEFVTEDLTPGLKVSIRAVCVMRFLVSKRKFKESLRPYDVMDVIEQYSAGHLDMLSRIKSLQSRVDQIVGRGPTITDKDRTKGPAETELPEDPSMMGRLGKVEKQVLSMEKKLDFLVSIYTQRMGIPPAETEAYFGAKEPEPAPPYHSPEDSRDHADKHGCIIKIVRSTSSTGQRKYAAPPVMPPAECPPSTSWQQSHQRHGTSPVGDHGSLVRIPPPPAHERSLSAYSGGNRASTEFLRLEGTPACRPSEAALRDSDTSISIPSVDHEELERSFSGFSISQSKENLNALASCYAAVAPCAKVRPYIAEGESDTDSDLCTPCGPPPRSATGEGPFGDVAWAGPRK
T1 sequence (O88944 whole entry): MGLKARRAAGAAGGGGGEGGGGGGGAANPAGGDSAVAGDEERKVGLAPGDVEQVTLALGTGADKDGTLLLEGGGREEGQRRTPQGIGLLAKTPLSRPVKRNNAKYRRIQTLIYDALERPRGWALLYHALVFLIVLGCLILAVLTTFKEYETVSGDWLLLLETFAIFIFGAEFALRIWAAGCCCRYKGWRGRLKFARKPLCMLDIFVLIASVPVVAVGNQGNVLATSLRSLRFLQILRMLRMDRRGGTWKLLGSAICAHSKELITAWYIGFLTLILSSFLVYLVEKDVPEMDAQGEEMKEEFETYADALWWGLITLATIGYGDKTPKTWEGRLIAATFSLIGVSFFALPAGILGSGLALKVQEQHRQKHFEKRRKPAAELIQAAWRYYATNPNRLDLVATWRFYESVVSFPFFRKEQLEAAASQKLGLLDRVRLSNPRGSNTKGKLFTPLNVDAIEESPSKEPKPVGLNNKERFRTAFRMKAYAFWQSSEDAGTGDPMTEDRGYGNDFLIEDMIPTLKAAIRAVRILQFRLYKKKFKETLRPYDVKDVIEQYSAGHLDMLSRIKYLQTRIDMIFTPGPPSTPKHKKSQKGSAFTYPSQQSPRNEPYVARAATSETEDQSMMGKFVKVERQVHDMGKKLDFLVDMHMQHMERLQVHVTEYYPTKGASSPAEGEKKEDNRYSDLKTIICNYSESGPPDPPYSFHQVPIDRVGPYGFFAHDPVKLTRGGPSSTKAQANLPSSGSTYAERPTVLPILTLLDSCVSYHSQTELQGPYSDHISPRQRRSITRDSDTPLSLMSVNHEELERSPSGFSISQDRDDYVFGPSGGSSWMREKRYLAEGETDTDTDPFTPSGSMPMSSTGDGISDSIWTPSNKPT

Take `CC(C)NCC(O)COc1ccc(COCCOC(C)C)cc1` (racemic) [BIS, 1-(propan-2-ylamino)-3-[4-(2-propan-2-yloxyethoxymethyl)phenoxy]propan-2-ol]: the IC50 (in general, the midpoint of a concentration-inhibition curve) in data set [1] worked out at 1.21 µM; in data set [2], 6.42 µM.
